# Assay results published in paper PMC3681751, “Identification of a Novel Antimicrobial Peptide from Human Hepatitis B Virus Core Protein Arginine-Rich Domain (ARD)” (PLoS Pathogens, 2013).
# Like-named read-outs stand apart in the source and are kept apart here. Residues, ends and D or L forms follow the SMILES beside them.
# How the values were obtained:
# [1] = system: P. aeruginosa (ATCC 27853); assay type: cell-based, Pseudomonas aeruginosa
# How it was run: (§1)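 Mid-log cultures grown in Mueller–Hinton broth were diluted to 10^6 CFU/ml in 10 mM sodium phosphate, 50 mM NaCl, pH 7.2, mixed with serially diluted HBc ARD peptides, and held 3 hours at 37°C without shaking. Survivors were plated on Mueller–Hinton agar overnight at 37°C to define MBC; triplicates.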
# [2] = system: P. aeruginosa (ATCC 9027); assay type: cell-based, Pseudomonas aeruginosa
# How it was run: as §1
# K. pneumonia = experiment: Killing kinetics; assay type: cell-based, Klebsiella pneumoniae; settings: 4 µM peptide, 37°C, triplicates
# Experimental: (§2) For measurement of killing kinetics, bacteria and peptides were prepared as described above. Fifty µl of bacteria were mixed with fifty µl of peptides at the concentrations corresponding to MBC and were incubated at 37°C. At the indicated time, bacteria were serially diluted and placed on Mueller-Hinton broth agar plates for the viability measurement.
# E. coli = experiment: Killing kinetics; assay type: cell-based, Escherichia coli; settings: 4 µM peptide (1×MBC), 37°C, triplicates
# Experimental: as §2
# P. aeruginosa = experiment: SYTOX Green uptake (membrane permeabilization); assay type: cell-based, Pseudomonas aeruginosa; settings: 2 µM peptide; 10^7 CFU, 1 µM SYTOX Green, 37°C, ex 485 nm/em 520 nm
# Experimental: (§3) Briefly, bacteria (10^7 CFU) were prepared and mixed with 1 µM SYTOX Green (Invitrogen) for 15 minutes in the dark. […] Melittin (Sigma), the major toxin of bee venom, was used as a positive control to provide maximal permeabilization.
# S. aureus = experiment: SYTOX Green uptake (membrane permeabilization); assay type: cell-based, Staphylococcus aureus; settings: 4 µM peptide; 10^7 CFU, 1 µM SYTOX Green, 37°C
# Experimental: as §3
# pSUPER plasmid DNA = experiment: Gel retardation assay (DNA binding); settings: 30 minutes at 37°C, 1% agarose gel; N/P = peptide amino nitrogen / DNA phosphate
# Experimental: The proportion between amino nitrogen (NH3 ^+) of HBc147-183 and phosphate (PO4 ^−) of DNA was defined as N/P ratio [35]. Briefly, HBc147-183 was incubated with pSUPER plasmid DNA at different N/P ratio (0, 0.2, 0.4, 0.6, 0.8, 1, 2, 3 and 4) for 30 minutes at 37°C. The mobility of pSUPER plasmid DNA was analyzed by electrophoresis on 1% agarose gel.
# [3] = system: Staphylococcus aureus ATCC 19636; experiment: Sepsis survival model, i.p. inoculation; assay type: in vivo; settings: 4×10^6 CFU/mouse i.p., n = 10
# Experimental: (§4) Three-week old male ICR mice (19 to 21 g) were purchased from BioLASCO (Taiwan). Overnight culture of bacteria in BHI broth (Difco) was subcultured in fresh BHI broth to log phase. Inoculums were diluted in BHI broth to indicated densities. To test the acute toxicity of ARD peptide in vivo, ICR male mice were inoculated intraperitoneally (i.p.) with 10 and 20 mg/kg HBc147-183 in PBS, respectively. Each group contained 5 mice. After peptide injection, the number of dead mice was recorded daily for 7 days post-injection. To test the antimicrobial activity of the ARD peptide in vivo, all mice were inoculated i.p. with Staphylococcus aureus ATCC 19636 (4×10^6 CFU/mouse) in BHI broth. Peptide HBc147-183 (10 mg/kg) was administered i.p. at 1, 1.5 and 2 hours post-inoculation. PBS (10 ml/kg) control was administered at 1 hour post-inoculation. […] Mortality was monitored daily for 7 days post-inoculation. […] The mice were anesthetized first before transferring to the IVIS imaging system (IVIS spectrum), and luminescence was measured with an exposure time of 1 minutes or less. The image system measured the number of photons and translated the data to false color images that depicted the region of strong luminescence with red, moderate luminescence with yellow and green, and mild luminescence with blue. […] Total flux (RLU) of region of interest (ROI) was quantified by the IVIS imaging software.
# [4] = system: Staphylococcus aureus ATCC 19636; experiment: Bacterial load in infected mice; assay type: in vivo, mouse; settings: 10 mg/kg i.p. at 1 hour, sampled 4 hours post-inoculation, n = 5
# Experimental: as §4
# [5] = system: Klebsiella pneumoniae Xen39; experiment: IVIS imaging of infected mice; assay type: in vivo; settings: 10 mg/kg at 1 hour, imaged 4 hours post-inoculation; 10^7 cfu/mouse; n = 5; P<0.01 vs PBS
# [6] = ampicillin-resistant strain, 3 h at 37°C in phosphate buffer pH 7.2, triplicate
smiles,measurement,setting,value
CC(C)[C@H](NC(=O)[C@@H](NC(=O)[C@@H](N)[C@@H](C)O)C(C)C)C(=O)N[C@@H](CCCNC(=N)N)C(=O)N[C@@H](CCCNC(=N)N)C(=O)N[C@@H](CCCNC(=N)N)C(=O)NCC(=O)N[C@@H](CCCNC(=N)N)C(=O)N[C@@H](CO)C(=O)N1CCC[C@H]1C(=O)N[C@@H](CCCNC(=N)N)C(=O)N[C@@H](CCCNC(=N)N)C(=O)N[C@@H](CCCNC(=N)N)C(=O)N[C@H](C(=O)N1CCC[C@H]1C(=O)N[C@@H](CO)C(=O)N1CCC[C@H]1C(=O)N[C@@H](CCCNC(=N)N)C(=O)N[C@@H](CCCNC(=N)N)C(=O)N[C@@H](CCCNC(=N)N)C(=O)N[C@@H](CCCNC(=N)N)C(=O)N[C@@H](CO)C(=O)N[C@@H](CCC(N)=O)C(=O)N[C@@H](CO)C(=O)N1CCC[C@H]1C(=O)N[C@@H](CCCNC(=N)N)C(=O)N[C@@H](CCCNC(=N)N)C(=O)N[C@@H](CCCNC(=N)N)C(=O)N[C@@H](CCCNC(=N)N)C(=O)N[C@@H](CO)C(=O)N[C@@H](CCC(N)=O)C(=O)N[C@@H](CO)C(=O)N[C@@H](CCCNC(=N)N)C(=O)N[C@@H](CCC(=O)O)C(=O)N[C@@H](CO)C(=O)N[C@@H](CCC(N)=O)C(=O)N[C@@H](CS)C(=O)O)[C@@H](C)O [HBc147-183] (H-TVVRRRGRSPRRRTPSPRRRRSQSPRRRRSQSRESQC-OH; N-terminus and C-terminus assumed),"Antimicrobial activity, MBC","[1]; ATCC 27853, 3 h, pH 7.2",2 to 4 µM
same,"Antimicrobial activity, MBC",[1]; [6],9.18 to 18.36 µg/mL
same,MBC against P. aeruginosa,"[2]; ATCC 9027, 3 h",lower than 4 µM
same,"Antimicrobial activity, MBC","[2]; ATCC 9027, 3 h, pH 7.2",2 µM
same,"Antimicrobial activity, MBC",[2]; [6],9.18 µg/mL
same,Time to complete killing,K. pneumonia,180 min
same,Time to complete killing,E. coli,180 min
same,Membrane permeabilization (SYTOX Green uptake),P. aeruginosa,significant degree of membrane permeabilization
same,Membrane permeabilization (SYTOX Green uptake),S. aureus,not able to induce membrane permeabilization
same,N/P ratio at which plasmid DNA was completely retarded,pSUPER plasmid DNA,1
same,Survival rate after 7 days,[3]; 10 mg/kg i.p. at 1.5 h post-inoculation,70%
same,Survival rate after 7 days,[3]; 10 mg/kg i.p. at 2 h post-inoculation (peak of bacterial load in blood),40%
same,"Bacterial load in blood, liver and spleen",[4],~10^4 cfu/ml
same,"Reduction of bacterial load in blood, liver and spleen vs PBS control",[4]; P<0.01,100 fold
same,Bioluminescence of infected mice,[5],very weak
